# Test results taken from patent publication US12098184B2, “G protein-coupled receptor (GPCR) ligand assay” (REGENTS OF THE UNIVERSITY OF MINNESOTA, priority 2017, dated 2024).
# Bridge positions count the residues as written; N and C are the ends. Ends that are not written are not given here.
# Assays:
# α1AR-Ipep sensor = conditions: bicine-mediated GPMVs, 100 μM
# V1R-Qpep sensor = experiment: FRET measurement with GPMV-V1R-Qpep sensors; assay type: biochemical; conditions: bicine-mediated GPMVs, 100 nM
Molecule,ΔFRET level with full agonist (α1AR-Ipep sensor),ΔFRET level with full agonist (V1R-Qpep sensor)
CNC[C@H](O)c1ccc(O)c(O)c1 [epinephrine],comparable to those obtained in the other experiments described herein,
"[Arg^8]vasopressin (CYFQNCPRG-NH2; disulfide 1-6) [[Arg^8]vasopressin (AVP), full agonist of V1R]",,comparable to those obtained in the other experiments described herein
